According to patent US9708337B2, “Aryl amide-based kinase inhibitors” (Bristol-Myers Squibb Company, priority 2013, dated 2017):
Like-named read-outs stand apart in the source and are kept apart here.

Biological target: AAK1 (GST-Xa-hAAK1) (Homo sapiens (Human), UniProt Q2M2I8)
Experiment: AAK1 Kinase Assay
Type: biochemical
Method: The assays were performed in U-bottom 384-well plates. […] The reactions were initiated by the combination of bacterially expressed, GST-Xa-hAAK1 with substrates and test compounds. The reactions were incubated at room temperature for 3 hours and terminated by adding 60 μl of 35 mM EDTA buffer to each sample. […] Compounds were dissolved at 10 mM in dimethylsulfoxide (DMSO) and evaluated at eleven concentrations. IC50 values were derived by non-linear regression analysis.

[1] = Table 1a, listed as IC50 ranges, ATP 22 μM, read-out: AAK1 IC50
[2] = Table 1a, numeric values, ATP 22 μM, read-out: AAK1 IC50

Chain of AAK1 (GST-Xa-hAAK1) (Q2M2I8 whole entry): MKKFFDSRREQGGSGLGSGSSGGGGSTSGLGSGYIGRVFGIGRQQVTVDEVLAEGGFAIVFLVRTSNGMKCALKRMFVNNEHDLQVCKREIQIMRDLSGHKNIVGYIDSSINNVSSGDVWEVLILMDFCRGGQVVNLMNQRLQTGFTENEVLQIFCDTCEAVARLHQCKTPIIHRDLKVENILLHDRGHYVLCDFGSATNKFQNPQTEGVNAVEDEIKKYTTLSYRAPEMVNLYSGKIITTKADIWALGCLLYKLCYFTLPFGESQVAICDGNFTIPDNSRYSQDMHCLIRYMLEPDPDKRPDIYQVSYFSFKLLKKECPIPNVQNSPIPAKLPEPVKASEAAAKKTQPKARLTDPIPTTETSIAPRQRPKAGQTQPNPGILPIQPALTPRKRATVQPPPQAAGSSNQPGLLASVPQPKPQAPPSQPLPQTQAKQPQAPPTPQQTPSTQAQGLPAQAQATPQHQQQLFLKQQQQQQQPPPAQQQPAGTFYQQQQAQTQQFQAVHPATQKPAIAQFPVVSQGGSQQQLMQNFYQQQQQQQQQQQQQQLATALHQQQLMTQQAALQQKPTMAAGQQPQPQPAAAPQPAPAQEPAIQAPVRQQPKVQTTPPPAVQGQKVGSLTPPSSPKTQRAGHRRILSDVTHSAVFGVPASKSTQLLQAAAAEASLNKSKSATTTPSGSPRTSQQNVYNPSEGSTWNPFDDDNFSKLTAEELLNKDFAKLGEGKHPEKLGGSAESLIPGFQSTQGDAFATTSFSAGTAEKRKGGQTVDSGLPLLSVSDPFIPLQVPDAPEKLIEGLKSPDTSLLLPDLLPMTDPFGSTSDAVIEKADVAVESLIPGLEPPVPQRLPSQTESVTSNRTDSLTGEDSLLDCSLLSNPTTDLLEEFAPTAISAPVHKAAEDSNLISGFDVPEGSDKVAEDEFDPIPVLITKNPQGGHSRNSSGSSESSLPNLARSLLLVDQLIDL

Row | Compound | IC50 [nM] | other results
1 | CC(C)CC(=O)Nc1ccc2c(c1)OCc1cnccc1-2 [Example 27, N-(5H-chromeno[3,4-c]pyridin-8-yl)-3-methylbutanamide] | 10 to 100 | –
2 | C#CCCC(=O)Nc1ccc2c(c1)OCc1cnccc1-2 [Example 14, N-(5H-chromeno[3,4-c]pyridin-8-yl)pent-4-ynamide] | 10 to 100 | –
3 | NS(=O)(=O)CCCC(=O)Nc1ccc2c(c1)OCc1cnccc1-2 [Example 21, N-(5H-chromeno[3,4-c]pyridin-8-yl)-4-sulfamoylbutanamide] | 100 to 1200 | –
4 | CC(C)C(=O)Nc1ccc2c(c1)OCc1cnccc1-2 [Example 24, N-(5H-chromeno[3,4-c]pyridin-8-yl)isobutyramide] | 100 to 1200 | –
5 | CCCC(=O)Nc1ccc2c(c1)OCc1cnccc1-2 [Example 31, N-(5H-chromeno[3,4-c]pyridin-8-yl)butyramide] | 10 to 100 | –
6 | N#CCCC(=O)Nc1ccc2c(c1)OCc1cnccc1-2 [Example 16, N-(5H-chromeno[3,4-c]pyridin-8-yl)-3-cyanopropanamide] | – | IC50 [1]: 100 to 1200 nM
7 | O=C(Nc1ccc2c(c1)OCc1cnccc1-2)NC1CCCCC1 [Example 13, 1-(5H-chromeno[3,4-c]pyridin-8-yl)-3-cyclohexylurea] | 100 to 1200 | –
8 | CC(C)C[C@H](N)C(=O)Nc1ccc2c(c1)OC(C)(C)c1cnccc1-2 [Example 9, (S)-2-amino-N-(5,5-dimethyl-5H-chromeno[3,4-c]pyridin-8-yl)-4-methylpentanamide] | – | IC50 [2]: 129 nM
9 | CC(C)C[C@H](N)C(=O)Nc1ccc2c(c1)oc(=O)c1cnccc12 [Example 11, (S)-2-amino-4-methyl-N-(5-oxo-5H-chromeno[3,4-c]pyridin-8-yl)pentanamide] | – | IC50 [1]: 100 to 1200 nM
10 | CCC(=O)Nc1ccc2c(c1)OCc1cnccc1-2 [Example 28, N-(5H-chromeno[3,4-c]pyridin-8-yl)propionamide] | 100 to 1200 | –
11 | N#CC1(C(=O)Nc2ccc3c(c2)OCc2cnccc2-3)CC1 [Example 20, N-(5H-chromeno[3,4-c]pyridin-8-yl)-1-cyanocyclopropanecarboxamide] | 100 to 1200 | –
12 | N#CCC(=O)Nc1ccc2c(c1)OCc1cnccc1-2 [Example 25, N-(5H-chromeno[3,4-c]pyridin-8-yl)-2-cyanoacetamide] | 100 to 1200 | –
13 | CC(C)(C)CC(=O)Nc1ccc2c(c1)OCc1cnccc1-2 [Example 26, N-(5H-chromeno[3,4-c]pyridin-8-yl)-3,3-dimethylbutanamide] | 10 to 100 | –
14 | N[C@H](C(=O)Nc1ccc2c(c1)OCc1cnccc1-2)c1ccccc1 [Example 36, (S)-2-amino-N-(5H-chromeno[3,4-c]pyridin-8-yl)-2-phenylacetamide] | – | IC50 [2]: 8.9 nM
15 | N[C@H](CNc1ccc2c(c1)OCc1cnccc1-2)c1ccccc1 [Example 37, (S)—N^1-(5H-chromeno[3,4-c]pyridin-8-yl)-2-phenylethane-1,2-diamine] | 10 to 100 | –
16 | CC(=O)Nc1ccc2c(c1)OCc1cnccc1-2 [Example 17, N-(5H-chromeno[3,4-c]pyridin-8-yl)acetamide] | 100 to 1200 | –

Row | Compound | IC50 [nM] | other results
17 | CCCCC(=O)Nc1cc2c(cc1Br)-c1ccncc1CO2 [Example 34, N-(9-bromo-5H-chromeno[3,4-c]pyridin-8-yl)pentanamide] | 10 to 100 | –
18 | CC(C)(C)C(=O)Nc1ccc2c(c1)OCc1cnccc1-2 [Example 32, N-(5H-chromeno[3,4-c]pyridin-8-yl)pivalamide] | 100 to 1200 | –
19 | CC(C)C[C@@H](N)C(=O)Nc1ccc2c(c1)OCc1cnccc1-2 [Example 1, (R)-2-amino-N-(5H-chromeno[3,4-c]pyridin-8-yl)-4-methylpentanamide] | 1 to 10 | –
20 | O=C(Nc1ccc2c(c1)OCc1cnccc1-2)C1CCCCC1 [Example 23, N-(5H-chromeno[3,4-c]pyridin-8-yl)cyclohexanecarboxamide] | 100 to 1200 | –
21 | CC(C)C[C@@H](N)C(=O)Nc1ccc2c(c1)OC(C)(C)c1cnccc1-2 [Example 8, (R)-2-amino-N-(5,5-dimethyl-5H-chromeno[3,4-c]pyridin-8-yl)-4-methylpentanamide] | 10 to 100 | –
22 | CN(C)CC(=O)Nc1ccc2c(c1)OCc1cnccc1-2 [Example 33, N-(5H-chromeno[3,4-c]pyridin-8-yl)-2-(dimethylamino)acetamide] | – | IC50 [1]: 100 to 1200 nM
23 | COC(=O)CCC(=O)Nc1ccc2c(c1)OCc1cnccc1-2 [Example 29, methyl 4-((5H-chromeno[3,4-c]pyridin-8-yl)amino)-4-oxobutanoate] | 100 to 1200 | –
24 | COCCC(=O)Nc1ccc2c(c1)OCc1cnccc1-2 [Example 18, N-(5H-chromeno[3,4-c]pyridin-8-yl)-3-methoxypropanamide] | 100 to 1200 | –
25 | CC(C)CCC(=O)Nc1ccc2c(c1)OCc1cnccc1-2 [Example 30, N-(5H-chromeno[3,4-c]pyridin-8-yl)-4-methylpentanamide] | – | IC50 [1]: 10 to 100 nM
26 | CCCCC(=O)Nc1ccc2c(c1)OCc1cnccc1-2 [Example 15, N-(5H-chromeno[3,4-c]pyridin-8-yl)pentanamide] | – | IC50 [2]: 26 nM
27 | CC(=O)Nc1cc2c(cn1)COc1cc(NC(=O)[C@@H](N)CC(C)C)ccc1-2 [Example 35, (S)—N-(2-acetamido-5H-chromeno[3,4-c]pyridin-8-yl)-2-amino-4-methylpentanamide] | – | IC50 [1]: 10 to 100 nM
28 | O=C(CCN1CCCC1=O)Nc1ccc2c(c1)OCc1cnccc1-2 [Example 22, N-(5H-chromeno[3,4-c]pyridin-8-yl)-3-(2-oxopyrrolidin-1-yl)propanamide] | – | IC50 [2]: 1200 nM
29 | O=C(CCO)Nc1ccc2c(c1)OCc1cnccc1-2 [Example 19, N-(5H-chromeno[3,4-c]pyridin-8-yl)-3-hydroxypropanamide] | 100 to 1200 | –
30 | CC(C)(C)COC(=O)Nc1ccc2c(c1)OCc1cnccc1-2 [Example 12, neopentyl 5H-chromeno[3,4-c]pyridin-8-ylcarbamate] | 100 to 1200 | –
31 | CC(C)C[C@H](N)C(=O)Nc1ccc2c(c1)OCc1cnccc1-2 [Example 2, (S)-2-amino-N-(5H-chromeno[3,4-c]pyridin-8-yl)-4-methylpentanamide] | 1 to 10 | –
32 | CC(C)C1CCCNC1C(=O)Nc1ccc2c(c1)OCc1cnccc1-2 (centres unmarked) [Example 10, N-(5H-chromeno[3,4-c]pyridin-8-yl)-3-isopropylpiperidine-2-carboxamide] | – | IC50 [2]: 1.3 nM
